The values below come from patent US20030060508A1, “Polyunsaturated fatty acid fractions of Nigella sativa L. seeds” (priority 2000, published 2003).

The test system of one assay is rat paw formalin edema. In words: anti-inflammatory activity, rat paw formalin edema. Format: in vivo, rats. Conditions: 3 mg/100 g.b.w. intraperitoneally. On the procedure: The anti-inflammatory activity of the Nigella sativa L. polyunsaturated fatty acid fraction was carried out in rats using a modification of rat paw formalin edema as described by Domemjoz et al. (1965).
Fifteen mature albino rats of both sexes weighing 150-200 gm were divided into 3 groups of 5 rats each. At the beginning of the experiment, the thickness of the rat left hind paw was measured using a Vernier caliper. Thereafter, rats of the first group were kept as a control and those of the second group (standard) were injected intraperitoneally with phenylbutazone in a dose of 3 mg/100 gm body weight. Rats of the third group were injected with the Nigella sativa L. polyunsaturated fatty acid fraction. After 30 minutes, inflammation was induced by subcutaneous injection of 0.1 mL of 6% solution of formalin in normal saline into the left hind paw.
The anti-inflammatory effect of the Nigella sativa L. polyunsaturated fatty acid fraction was estimated by comparing the magnitude of the paw swelling in the pretreated animals with that of the control animals. Measurement of rat paw thickness was carried out at hourly intervals for a period of 3 hours.

Assay [1] has as its system histamine-induced bronchospasm in guinea pigs. In words: protection from histamine-induced bronchospasm. Format: in vivo. Particulars: 239 mg/kg i.p. On the procedure: The anti-histamine effects of the Nigella sativa L. polyunsaturated fatty acid fraction on induced bronchospasm in guinea pigs was evaluated using the methods described by Armitage et al, Brit. J Pharmacol., 16:59-76 (1961). Willis, J. Pharm. Pharmacol., 21:126 (1969).
The prophylactic anti-allergic effects were evaluated in guinea pigs (300-400 grams). The animals were divided into 5 groups (10 animals each) and treated i.p. as follows: (1) animals treated with saline (control); (2) animals treated with diphenydramine (239 mg/kg/day); (3) animals treated with 50 mg/kg polyunsaturated fatty acid fraction; (4) animals treated with 100 mg/kg polyunsaturated fatty acid fraction; and (5) animals treated with 150 mg/kg polyunsaturated fatty acid fraction.
Animals were exposed 30 minutes after their i.p. injection of diphenydramine and polyunsaturated fatty acid fraction to histamine aerosol (1%) for 3 minutes. Bronchospasm and loss of rightening after 30, 60 and 90 minutes was calculated according to the following formula (Dawson and Sweatman, Br. J. Pharmacol., 71:387-398 (1980)): [formula]

In assay [2] the test system is writhing induced by parabenzoquinone. Briefly: analgesic activity, writhing method. Format: in vivo, mice. Conditions: 5.0 mg/100 g.b.w. On the procedure:
The analgesic activity of the Nigella sativa L. polyunsaturated fatty acid fraction was studied using the writhing method described by Okun et al. (1963). Thirty mature mice of both sexes weighing from 20 to 25 gm were divided into 3 groups of 10 mice each. The first group served as a control and the second group served as a standard (treated with paracetamol in a dose of 5 mg/100 gm body weight). The third group was injected subcutaneously with the Nigella sativa L. polyunsaturated fatty acid fraction. After 30 minutes, mice were injected intraperitoneally with 0.25 ml of a solution of parabenziquinone (0.2 mg/ml in saline). […] Animals devoid of writhing in each group were recorded and the analgesic potencies of paracetamol and the Nigella sativa L. polyunsaturated fatty acid fraction were determined as percent protection against writhing.
For orientation: Writhing tests count abdominal constrictions after an irritant is injected.

The test system of assay [3] is guinea pigs exposed to histamine aerosol (0.25%). In words: prophylactic anti-asthmatic effect, preconvulsive time. It is filed as in vivo. Conditions: 5 microg/kg, treated for 21 days. On the procedure: This example explains in vivo studies to evaluate the prophylactic (protective) anti-asthmatic effect of the Nigella sativa L. polyunsaturated fatty acid fraction. The prophylactic antiasthmatic effect was evaluated in vivo by measurement of the preconvulsive time in guinea pigs exposed to histamine aerosol (0.25%).
Guinea pigs were divided into three groups with 8 animals per group. The first group received a saline injection to serve as negative control. The second group received ketotifen, which is the standard treatment to serve as positive control. The third group received 200 mg/kg of the Nigella sativa L. polyunsaturated fatty acid fraction.
Animals in all groups were treated for 21 days, after which they were exposed to histamine (0.25%) aerosol and the preconvulsive time was recorded.

In assay [4] the test system is ova albumin inhalation in sensitized guinea pigs. In words: time to onset of tachypnea in sensitized animals. It is filed as in vivo. Conditions: 50 microg/kg, treated for 21 days. On the procedure: The second protocol involved sensitized animals. Animals were sensitized by injecting ova albumin in two doses 100 mg. each (S.C. and I.P., simultaneously). Animals were resensitized 15 days later. Guinea pigs were divided into three groups with 8 animals per group. The first group received a saline injection to serve as negative control. The second group received ketotifen which is the standard treatment to serve as positive control. The third group received 200 mg/kg each of Nigella sativa L. polyunsaturated fatty acid fraction. Animals in all groups were treated for 21 days following which they were exposed to ova albumin inhalation and time to onset of tachypnea was recorded as shown in the table below (*Statistically significant from the control group (P<0.05)).

For the next assay, the system named is Streptococcus pyogenes. Briefly: Comparative antibacterial activity with ampicillin, bore method. It is filed as cell-based. Conditions: 1 μg/mL, read-out: Diameter of Zone of Inhibition. On the procedure: (§1) […] The values are the average of three separate experiments. The anti-bacterial activity of the tested isolates was detected in vitro using the bore method. The nutrient agar medium containing one bacterial strain was poured into sterilized petri-dishes, each 20×120 mm, then left for 10 minutes to dry. Using the borer No. 5, a central bore was made in each plate, then another 4 were arranged it. The effect of different concentrations of the tested isolates on certain microorganisms was tested in 2 plates.
(§2) The comparative antibacterial activity of ampicillin and the Nigella sativa L. polyunsaturated fatty acid fraction against certain bacterial strains (Streptococcus pyogenes, Corynebacterium pyogenes and Salmonella typhi murium) was preformed in vitro using the bore method as described by Cooper and Woodman (1964) as previously described. The effect of ampicillin (1 μg/mL) and the Nigella sativa L. polyunsaturated fatty acid fraction (at 1 mg/ml) on the previously mentioned bacteria was tested.

The next assay has as its system Salmonella typhi murium. The assay is described as above. Format: cell-based. Particulars: Salmonella enterica, read-out: Diameter of Zone of Inhibition. On the procedure: as §1, §2
The subject of another assay is Corynebacterium pyogenes. The description is as above. Format: cell-based. Conditions: 1 μg/mL, read-out: Diameter of Zone of Inhibition. On the procedure:
as §1, §2

With `CCCCC1C(=O)N(c2ccccc2)N(c2ccccc2)C1=O` [Phenylbutazone, phenylbutazone], in the assay with rat paw formalin edema, the “Rat Paw Thickness, 1 Hour” value was determined as 5.85 ± 0.15 mm; the “Rat Paw Thickness, 2 Hours” value amounted to 5.71 ± 0.09 mm; the “Rat Paw Thickness, 3 Hours” value is 5.82 ± 0.05 mm.

For `CN(C)CCOC(c1ccccc1)c1ccccc1` [diphenhydramine], in assay [1], the “% protection 30 minutes” value stood at 100%, the “% protection 60 minutes” value stood at 100% and the “% protection 90 minutes” value amounted to 90%.

Take `CC(=O)Nc1ccc(O)cc1` [Paracetamol, paracetamol]: in assay [2], the “% Protection, 120 minutes” value amounted to 20%; the “% protection 30 minutes” value turned out to be 100%; the “% protection 60 minutes” value is listed as 60%; the “% protection 90 minutes” value amounted to 40%.

For `CN1CCC(=C2c3ccccc3CC(=O)c3sccc32)CC1` [ketotifen], in assay [3], the “% of Prophylaxis (Protection)” value worked out at 82.85%. In addition, the “% of Prophylaxis” value in assay [4] came out at 44.4%.

By zone of inhibition is commonly meant the extent of the growth-free halo in a diffusion test. For `CC1(C)S[C@@H]2[C@H](NC(=O)[C@H](N)c3ccccc3)C(=O)N2[C@H]1C(=O)O` [Ampicillin, ampicillin], the zone of inhibition at 1 µg/mL in the assay with Streptococcus pyogenes came to 26.7 ± 0.3 mm; in the assay on Salmonella typhi murium, 13.1 ± 0.2 mm; with Corynebacterium pyogenes, 44.7 ± 0.8 mm.
